# According to PMC7170901, “Design and efficient synthesis of pyrazoline and isoxazole bridged indole C-glycoside hybrids as potential anticancer agents” (Scientific Reports, 2020):
# Test system: MDA-MB-231 (human breast cancer) cell line
# Assay: MTT cell viability assay in MDA-MB-231 cells
# Assay type: cell-based
# Conditions: for viability at 10 µM / viability at 25 µM / viability at 50 µM: MDA-MB-231, 72 h; for viability at 10 µM / viability at 25 µM / viability at 50 µM / Cell Viability (%) ± SD: 72 h, MTT
# Description: IC50 values were determined by plotting values of percent cell viability against concentration of each of these compounds. […] The experiments were performed in triplicates, n = 3 and ± SE value was calculated for each data point.
# The human breast cancer cell line MDA-MB-231 were cultured in Dulbecco’s Modified Eagle’s Medium (DMEM) (Gibco, St. Louis, USA) supplemented with 10% heat inactivated FBS (Fetal Bovine Serum, Gibco, USA) and 1% penicillin-streptomycin (Gibco Canada) in humidified CO2 incubator at 37 °C. The cells were maintained as a monolayer in 100 mm culture plate. The cells used for each experiment were of less than 8 passage number. Sub culturing of cells was performed every third day, followed by trypsin EDTA treatment.
# Cell viability assay was performed as per standard protocols. […] Ltd, India). In brief, this is a homogeneous, colorimetric method for determining the number of viable cells in proliferation, cytotoxicity or chemosensitivity assays. MTT is bio reduced by cells into a formazan product that is soluble in the tissue culture medium. […] The absorbance of the formazan product at 595 nm was measured directly from 96-well assay plates without additional processing using a multimode plate reader (Bio-Rad) (iMark, India), as absorbance is directly proportional to the number of viable cells in culture. The percentage of viable cells in each group is determined with respect to the untreated control cells.
# [1] = Homo sapiens, MDA-MB-231, 10 µM, read-out: Cell Viability (%) ± SD
# [2] = Homo sapiens, MDA-MB-231, 25 µM, read-out: Cell Viability (%) ± SD
# [3] = Homo sapiens, MDA-MB-231, 50 µM, read-out: Cell Viability (%) ± SD
Compound,viability at 10 µM [1],viability at 25 µM [2],viability at 50 µM [3],"viability at 20 µM (Homo sapiens, MDA-MB-231, MDA-MB-231, positive control at 20 µM, read-out: Cell Viability (%) ± SD)","Cell Viability (%) ± SD (MDA-MB-231, 10 µM, 10 µM)","Cell Viability (%) ± SD (MDA-MB-231, 25 µM, 25 µM)","Cell Viability (%) ± SD (MDA-MB-231, 50 µM, 50 µM)"
"O=C(/C=C/c1c[nH]c2ccccc12)C[C@@H]1O[C@H](CO)[C@@H](O)[C@H](O)[C@@H]1O [Compound 17, (E)-4-(1H-indol-3-yl)-1-((2S,3S,4R,5S,6R)-3,4,5-trihydroxy-6-(hydroxymethyl)tetrahydro-2H-pyran-2-yl)but-3-en-2-one]",84.1 ± 4.09%,80.5 ± 2.58%,79.4 ± 10.4%,,,,
"O=C(/C=C/c1c[nH]c2ccc(Cl)cc12)C[C@@H]1O[C@H](CO)[C@H](O)[C@H](O)[C@H]1O [Compound 16, (E)-4-(5-chloro-1H-indol-3-yl)-1-((2S,3R,4R,5R,6R)-3,4,5-trihydroxy-6-(hydroxylmethyl)tetrahydro-2H-pyran-2-yl)but-3-en-2-one]",75 ± 14.3%,89.6 ± 12.9%,56.7 ± 17.8%,,,,
"O=C(/C=C/c1c[nH]c2ccc([N+](=O)[O-])cc12)C[C@@H]1O[C@H](CO)[C@@H](O)[C@H](O)[C@H]1O [Compound 18, (E)-4-(5-nitro-1H-indol-3-yl)-1-((2S,3R,4R,5S,6R)-3,4,5-trihydroxy-6-(hydroxylmethyl)tetrahydro-2H-pyran-2-yl) but-3-en-2-one]",71.7 ± 28.4%,78.5 ± 6.73%,69.8 ± 20.4%,,,,
"OC[C@H]1O[C@@H](Cc2cc(-c3c[nH]c4ccccc34)on2)[C@H](O)[C@@H](O)[C@@H]1O [Compound 33, (2 S,3 R,4 R,5 S,6 R)-2-((5-(1H-indol-3-yl)isoxazol-3-yl)methyl)-6-(hydroxymethyl) tetrahydro-2H-pyran-3,4,5-triol]",104 ± 12.7%,106 ± 7.4%,92.6 ± 15.2%,,,,
"OC[C@H]1O[C@@H](CC2=NNC(c3c[nH]c4ccc(Cl)cc34)C2)[C@H](O)[C@@H](O)[C@@H]1O (stereo partly shown) [Compound 24, (2 S,3 R,4 R,5 S,6 R)-2-((5-(5-chloro-1H-indol-3-yl)-4,5-dihydro-1H-pyrazol-3-yl)methyl)-6-(hydroxymethyl)tetrahydro-2H-pyran-3,4,5-triol]",82.2 ± 3.5%,77.5 ± 8.96%,77.7 ± 2.56%,,,,
"OC[C@H]1O[C@@H](CC2=NNC(c3c[nH]c4ccc(Br)cc34)C2)[C@H](O)[C@@H](O)[C@@H]1O (stereo partly shown) [Compound 23, (2 S,3 R,4 R,5 S,6 R)-2-((5-(5-bromo-1H-indol-3-yl)-4,5-dihydro-1H-pyrazol-3-yl)methyl)-6-(hydroxymethyl)tetrahydro-2H-pyran-3,4,5-triol]",105 ± 11.3%,88.8 ± 2.22%,81.5 ± 5.45%,,,,
"OC[C@H]1O[C@@H](Cc2cc(-c3c[nH]c4ccccc34)on2)[C@@H](O)[C@@H](O)[C@@H]1O [Compound 41, (2 S,3 S,4 R,5 S,6 R)-2-((5-(1H-indol-3-yl)isoxazol-3-yl)methyl)-6-(hydroxymethyl) tetrahydro-2H-pyran-3,4,5-triol]",89.2 ± 3.7%,81.2 ± 5.17%,74 ± 17.6%,,,,
"CC1=CC(=O)c2ccccc2C1=O [Menadione, menadione, reference compound]",,,,20.8 ± 8.7%,,,
"O=[N+]([O-])c1ccc2[nH]cc(-c3cc(C[C@@H]4O[C@H](CO)[C@@H](O)[C@H](O)[C@@H]4O)no3)c2c1 [Compound 42, (2 R,3 S,4 R,5 S,6 S)-2-(hydroxymethyl)-6-((5-(5-nitro-1H-indol-3-yl)isoxazol-3-yl)methyl) tetrahydro-2H-pyran-3,4,5-triol]",92.6 ± 11.5%,93.4 ± 15.7%,95.2 ± 13.6%,,,,
"O=C(/C=C/c1c[nH]c2ccc(Br)cc12)C[C@@H]1O[C@H](CO)[C@H](O)[C@H](O)[C@H]1O [Compound 15, (E)-4-(5-bromo-1H-indol-3-yl)-1-((2S,3R,4R,5R,6R)-3,4,5-trihydroxy-6-(hydroxymethyl)tetrahydro-2H-pyran-2-yl)but-3-en-2-one]",125 ± 3.51%,113 ± 23.9%,67.5 ± 17.7%,,,,
"O=C(/C=C/c1c[nH]c2ccc([N+](=O)[O-])cc12)C[C@@H]1O[C@H](CO)[C@@H](O)[C@H](O)[C@H]1O [Compound 10, (E)-4-(5-nitro-1H-indol-3-yl)-1-((2S,3R,4R,5S,6R)-3,4,5-trihydroxy-6-(hydroxymethyl)tetrahydro-2H-pyran-2-yl)but-3-en-2-one]",,,,,91.40 ± 10.38%,84.49 ± 6.74%,85.37 ± 14.16%
"OC[C@H]1O[C@@H](Cc2cc(-c3c[nH]c4ccc(Br)cc34)on2)[C@H](O)[C@@H](O)[C@H]1O [Compound 39, (2 S,3 R,4 R,5 R,6 R)-2-((5-(5-bromo-1H-indol-3-yl)isoxazol-3-yl)methyl)-6-(hydroxymethyl) tetrahydro-2H-pyran-3,4,5-triol]",120 ± 17.6%,89.4 ± 5.32%,90.3 ± 2.88%,,,,
"O=C(/C=C/c1c[nH]c2ccccc12)C[C@@H]1O[C@H](CO)[C@H](O)[C@H](O)[C@H]1O [Compound 13, (E)-4-(1H-indol-3-yl)-1-((2S,3R,4R,5R,6R)-3,4,5-trihydroxy-6-(hydroxymethyl)tetrahydro-2H-pyran-2-yl)but-3-en-2-one]",97.6 ± 2.25%,94.2 ± 1.96%,84.2 ± 9.22%,,,,
"OC[C@H]1O[C@@H](Cc2cc(-c3c[nH]c4ccc(Cl)cc34)on2)[C@@H](O)[C@@H](O)[C@@H]1O [Compound 44, (2 S,3 S,4 R,5 S,6 R)-2-((5-(5-chloro-1H-indol-3-yl)isoxazol-3-yl)methyl)-6-(hydroxymethyl) tetrahydro-2H-pyran-3,4,5-triol]",83.9 ± 4.08%,82.9 ± 5.28%,81.7 ± 3.45%,,,,
"O=C(/C=C/c1c[nH]c2ccc(Cl)cc12)C[C@@H]1O[C@H](CO)[C@@H](O)[C@H](O)[C@H]1O [Compound 12, (E)-4-(5-chloro-1H-indol-3-yl)-1-((2S,3R,4R,5S,6R)-3,4,5-trihydroxy-6-(hydroxymethyl)tetrahydro-2H-pyran-2-yl)but-3-en-2-one]",79.2 ± 8.51%,89.8 ± 8.75%,74.8 ± 7.02%,,,,
"OC[C@H]1O[C@@H](Cc2cc(-c3c[nH]c4ccc(Cl)cc34)on2)[C@H](O)[C@@H](O)[C@@H]1O [Compound 36, (2 S,3 R,4 R,5 S,6 R)-2-((5-(5-chloro-1H-indol-3-yl)isoxazol-3-yl)methyl)-6-(hydroxymethyl) tetrahydro-2H-pyran-3,4,5-triol]",97.8 ± 11.6%,96.8 ± 11.6%,99.3 ± 4.28%,,,,
"OC[C@H]1O[C@@H](CC2=NNC(c3c[nH]c4ccc(Cl)cc34)C2)[C@H](O)[C@@H](O)[C@H]1O (stereo partly shown) [Compound 28, (2 S,3 R,4 R,5 R,6 R)-2-((5-(5-chloro-1H-indol-3-yl)-4,5-dihydro-1H-pyrazol-3-yl)methyl)-6-(hydroxymethyl)tetrahydro-2H-pyran-3,4,5-triol]",99.5 ± 10.2%,95.2 ± 13.6%,63.4 ± 17.5%,,,,
"OC[C@H]1O[C@@H](CC2=NNC(c3c[nH]c4ccccc34)C2)[C@H](O)[C@@H](O)[C@@H]1O (stereo partly drawn) [Compound 21, (2S,3R,4R,5S,6R)-2-((5-(1H-indol-3-yl)-4,5-dihydro-1H-pyrazol-3-yl)methyl)-6-(hydroxy-methyl)tetrahydro-2H-pyran-3,4,5-triol]",73.5 ± 2.43%,76.8 ± 2.43%,75 ± 2.62%,,,,
"O=[N+]([O-])c1ccc2[nH]cc(C3CC(C[C@@H]4O[C@H](CO)[C@@H](O)[C@H](O)[C@@H]4O)=NN3)c2c1 (stereo partly shown) [Compound 30, (2 S,3 S,4 R,5 S,6 R)-2-((5-(5-nitro-1H-indol-3-yl)-4,5-dihydro-1H-pyrazol-3-yl)methyl)-6-(hydroxymethyl)tetrahydro-2H-pyran-3,4,5-triol]",93.8 ± 5.85%,92.1 ± 8%,88 ± 1.1%,,,,
"OC[C@H]1O[C@@H](CC2=NNC(c3c[nH]c4ccc(Cl)cc34)C2)[C@@H](O)[C@@H](O)[C@@H]1O (stereo partly shown) [Compound 32, (2 S,3 S,4 R,5 S,6 R)-2-((5-(5-chloro-1H-indol-3-yl)-4,5-dihydro-1H-pyrazol-3-yl)methyl)-6-(hydroxymethyl)tetrahydro-2H-pyran-3,4,5-triol]",74.6 ± 4.7%,78.5 ± 4.44%,66.5 ± 7.27%,,,,
"OC[C@H]1O[C@@H](Cc2cc(-c3c[nH]c4ccc(Br)cc34)on2)[C@@H](O)[C@@H](O)[C@@H]1O [Compound 43, (2 S,3 S,4 R,5 S,6 R)-2-((5-(5-bromo-1H-indol-3-yl)isoxazol-3-yl)methyl)-6-(hydroxymethyl) tetrahydro-2H-pyran-3,4,5-triol]",96.6 ± 3.98%,85.2 ± 2.93%,95.7 ± 3.26%,,,,
